# In patent publication US6677309B1, “Anti-cancer drug aldehyde conjugate drugs with enhanced cytotoxicity compounds, compositions and methods” (University Technology Corporation, priority 1997, dated 2004):
# Where two headings read alike, the source gives them in different places.
# Tests used:
# [1] = Stability in DMSO and DMSO/water, NMR or HPLC; assay type: physicochemical
# Experimental: Crystalline dimeric formaldehyde conjugate of daunorubicin (2.8 mg, 2.6 μmol) was dissolved in 500 μL of DMSO-d6 (stored over 3 A molecular sieves) and analyzed by 400 MHz, ^1H NMR. […] Upon addition of 25 μL of D2O to the 500 μL DMSO-d6 sample, the dimeric formaldehyde conjugate of daunorubicin reacted over a 24 h period to form an equilibrium mixture consisting of 67% dimeric formaldehyde conjugate of daunorubicin and 32% of an intermediate. Because of the complexity of the spectrum, a structure could not be assigned to the intermediate; however, the intermediate appeared to have an oxazolidine ring. Upon addition of 3 equiv of hydrochloric acid in 130 μL of deuterium oxide, hydrolysis to daunorubicin-HCl was complete. The hydrochloric acid solution was prepared by the addition of 10 μL of concentrated HCl to 990 μL of D2O. The formaldehyde released from the dimeric formaldehyde conjugate of daunorubicin was detected as its hydrate. The final product was identified as daunorubicin by comparison of the NMR spectrum with that of a sample of daunorubicin plus 3 equiv of HCl. Further, the final product was isolated by removal of all volatile components under vacuum (0.1 Torr), and its ^1H NMR spectrum was identical to that of daunorubicin-HCl.
# Amorphous dimeric formaldehyde conjugate of daunorubicin, when worked up in methylene chloride, was stable in DMSO for at least 4 days. It hydrolyzed with added D2O and hydrochloric acid in a manner similar to that of the crystalline material. When worked up in chloroform, amorphous dimeric formaldehyde conjugate of daunorubicin had less stability in DMSO, presumably due to traces of HCl from the chloroform.
# A 1.3 mg sample of N-acetyl-3′-N,4′-O-methylenedaunorubicin was dissolved in […] of DMSO and analyzed over time by HPLC. […] At this time, […] of water was added to the DMSO/N-acetyl monomeric formaldehyde conjugate of daunorubicin solution, establishing a 50:50 DMSO:water mixture (v/v). In this solution, the N-acetyl-3′-N,4′-O-methylenedaunorubicin remained 91% intact (9% degradation to daunorubicin) over a period of 6 days, based upon the HPLC analysis.
# A pH 6 triethyl ammonium acetate solution containing 13.1 μmol of epidoxorubicin-HCl and 6.6 mmol of […] was allowed to react in the dark at 25° C. for 30 min. The mixture was then extracted with chloroform with vigorous stirring for 20 min. The chloroform solution was dried over sodium sulfate and the chloroform removed by rotary evaporation. The resulting dry solid was redissolved in 1.0 mL of chloroform. To this was added 10 mL of n-hexane. After 2 days, a large amount of precipitate had formed, which was washed with 3×5 mL of n-hexane, followed by 4×1 mL of water.
# The sample was maintained at ambient temperature for 2 h; after this period no change in the spectrum was observed. […] A stock 122 mM solution of HCl in D2O was prepared by adding concentrated hydrochloric acid to D2O. […] Complete hydrolysis occurred upon addition of ca. 2-3 equiv of HCl. A similar experiment was performed using HCl in H2O. […] This solution was incubated at 37° C. for 24 h prior to NMR analysis.
# [2] = test system: self-complementary DNA octamer (GC)4; experiment: Drug-DNA conjugate formation with (GC)4, HPLC; assay type: biochemical; settings: for DNA reacted to form drug-DNA conjugates: 33 μM (GC)4, 33 μM conjugate, 4% DMSO
# Experimental: The amount of available formaldehyde was 99 μM (3×33 μM). […] The experiment was also run at 25° C. in pH 6.0 phosphate buffer containing 4% DMSO. […] The ratio for conjugate 1 was assumed to be 24:1, based upon the value for conjugate 2. […] Under these circumstances, the conjugate 1 area was estimated based upon its 480 nm absorbance, assuming the 24:1 ratio for A260:A480.
# The formation of drug-DNA conjugates at 25° C. was monitored by HPLC (Method II). […] The experiment was also run in pH 6.0 phosphate buffer containing 4% DMSO.
# MCF-7/ADR cells = experiment: Cytotoxicity versus time of drug hydrolysis before addition to cells; assay type: cell-based, human; settings: 1 μmol equiv./L, 25° C., serum-free media containing 10% DMSO, MCF-7/ADR survival
# Experimental: The results of these experiments are illustrated in FIG. 2. […] However, the dimeric formaldehyde conjugate of daunorubicin completely lost its effectiveness within 25 min of standing in an aqueous solution. […] This biphasic curve is probably due to the decay mechanism of the dimeric formaldehyde conjugate of doxorubicin to doxorubicin in aqueous solution.
# The drug solution was diluted 1:100 with DMSO, then 1:10 in serum-free RPMI media 1640. A volume of 20 μL of the resulting 0.5 μM (1 μmol equiv/L) drug solution was immediately added to the t=0 min lane. The remaining lanes were treated at 5 min intervals with 20 μL of the remaining drug solution, which was held at 25° C. between additions. Additionally, one lane was treated with 20 μL/well of serum-free RPMI media containing 10% DMSO (no drug) and one lane replaced with 200 μL/well of 1.5 M Tris buffer (no cells). Each lane was incubated at 37° C. for 3 h.
# LNCaP = experiment: Prostate cancer cell cytotoxicity, crystal violet assay, LNCaP; assay type: cell-based, human; settings: 3 h drug, 4 days growth
# Experimental: Toxicity to the three prostate cancer cell lines, LNCaP, DU-145, and PC-3 were measured in two different media, RPMI-1640 and DMEM (Dulbecco's Modified Eagle Medium), both supplemented with 10% fetal bovine serum.
# Cell lines were maintained in vitro in RPMI 1640 media or DMEM, each supplemented with 10% fetal bovine serum, 2 mM L-glutamine, 10 mM HEPES buffer, penicillin (100 units/mL) and streptomycin (100 μg/mL).
# Cells were dissociated with trypsin/EDTA, counted, and suspended in growth media (RPMI or DMEM) to a concentration of 5.6×10^3 cells/mL. Cell suspensions were dispensed in 180 μL aliquots into 96-well tissue culture plates. […] Each 100× solution was diluted 10× in growth media (RPMI or DMEM), and a 20 μL aliquot of the resulting 10× solution was immediately (<10s) added to-the appropriate lane. Additionally, one lane was treated with 20 μL of 10% DMSO in growth media (no drug) and one lane was treated with 200 μL of 1.5 M Tris buffer (no cells). The cells were incubated with the drugs for 3 h at 37° C. The drug solutions were then removed and replaced with 200 μL of fresh media. The cells were incubated for 4 days (7 days for PC-3 cells in DMEM) at 37° C. in a humidified atmosphere of 5% CO2 and 95% air. Cell survival was determined using a crystal violet assay as described earlier (Fenick, D. J. et al (1997) J. Med. Chem. 40: 2452-2461).
Compound,"time stable in DMSO ([1]; dry DMSO / DMSO-d6, 1H NMR)","DNA reacted to form drug-DNA conjugates ([2]; pH 6.0 phosphate buffer, 25° C., 5 h)","DNA reacted to form drug-DNA conjugates ([2]; pH 7.3 phosphate buffer, 25° C., 24 h)","DNA that had formed drug-DNA conjugates ([2]; 398 μM (GC)4, 796 μM conjugate, pH 7.3 phosphate buffer, 25° C., 5 h)","share of conjugate in the equilibrium mixture ([1]; 25 μL D2O added to 500 μL DMSO-d6, over 24 h, NMR)","time stable in DMSO ([1]; crystalline material in DMSO-d6 stored over molecular sieves, 1H NMR)",time of standing in an aqueous solution until effectiveness completely lost (MCF-7/ADR cells),"(GC)4 reacted relative to the equivalent amount of daunorubicin and formaldehyde ([2]; 33 μM (GC)4, 55 μM conjugate, pH 7.4, 25° C., after approximately 1 min)","extent of DNA reaction to drug-DNA conjugates ([2]; 317 μM (GC)4, 357 μM conjugate, pH 7.4 phosphate buffer, 25° C., 41 h)","IC50 (LNCaP; DMEM with 10% fetal bovine serum, read-out: IC50 Values, LNCaP/DMEM (converted))","IC50 (LNCaP; RPMI-1640 with 10% fetal bovine serum, read-out: IC50 Values, LNCaP/RPMI-1640 (converted))"
COc1cccc2c1C(=O)c1c(O)c3c(c(O)c1C2=O)CC(O)(C(=O)CO)CC3OC1CC2C(OCN3CN2COC2C(C)OC(OC4C[C@](O)(C(=O)CO)Cc5c(O)c6c(c(O)c54)C(=O)c4c(OC)cccc4C6=O)CC23)C(C)O1 (stereo partly drawn) [EPIF],at least 4 days,64%,68%,91%,,,,,,,
"COc1cccc2c1C(=O)c1c(O)c3c(c(O)c1C2=O)C[C@@](O)(C(C)=O)C[C@@H]3O[C@H]1C[C@H]2[C@H](OCN2CN2CO[C@@H]3[C@H](C)O[C@@H](O[C@H]4C[C@](O)(C(C)=O)Cc5c(O)c6c(c(O)c54)C(=O)c4c(OC)cccc4C6=O)C[C@@H]32)[C@H](C)O1 [DAUNF, bis(3′-N-(3′-N,4′-O-methylenedaunorubicinyl))methane]",at least 4 days,,,,67%,at least 14 h,≤ 25 min,four times as much (GC)4,completely reacted,1.5 nM,3 nM
